ChEMBL document CHEMBL3393018, “Multimodal biopanning of T7 phage-displayed peptides reveals angiomotin as a potential receptor of the anti-angiogenic macrolide Roxithromycin” (Eur J Med Chem, 2015)
pIC50: −log10 of the molar value. Active and inactive are the calls of the source. No cut-off for these calls is given here.

Experiments:
[1] = target: T1, Angiomotin (Homo sapiens) (UniProt Q4VCS5); assay: Binding affinity to recombinant GST-tagged Amot (H343 to I675 residues) (unknown origin) expressed in Escherichia coli at 50 uM using Amot immobilized on gold electrode of QCM sensor chip by […] biosensor-based assay
T1 sequence (whole entry): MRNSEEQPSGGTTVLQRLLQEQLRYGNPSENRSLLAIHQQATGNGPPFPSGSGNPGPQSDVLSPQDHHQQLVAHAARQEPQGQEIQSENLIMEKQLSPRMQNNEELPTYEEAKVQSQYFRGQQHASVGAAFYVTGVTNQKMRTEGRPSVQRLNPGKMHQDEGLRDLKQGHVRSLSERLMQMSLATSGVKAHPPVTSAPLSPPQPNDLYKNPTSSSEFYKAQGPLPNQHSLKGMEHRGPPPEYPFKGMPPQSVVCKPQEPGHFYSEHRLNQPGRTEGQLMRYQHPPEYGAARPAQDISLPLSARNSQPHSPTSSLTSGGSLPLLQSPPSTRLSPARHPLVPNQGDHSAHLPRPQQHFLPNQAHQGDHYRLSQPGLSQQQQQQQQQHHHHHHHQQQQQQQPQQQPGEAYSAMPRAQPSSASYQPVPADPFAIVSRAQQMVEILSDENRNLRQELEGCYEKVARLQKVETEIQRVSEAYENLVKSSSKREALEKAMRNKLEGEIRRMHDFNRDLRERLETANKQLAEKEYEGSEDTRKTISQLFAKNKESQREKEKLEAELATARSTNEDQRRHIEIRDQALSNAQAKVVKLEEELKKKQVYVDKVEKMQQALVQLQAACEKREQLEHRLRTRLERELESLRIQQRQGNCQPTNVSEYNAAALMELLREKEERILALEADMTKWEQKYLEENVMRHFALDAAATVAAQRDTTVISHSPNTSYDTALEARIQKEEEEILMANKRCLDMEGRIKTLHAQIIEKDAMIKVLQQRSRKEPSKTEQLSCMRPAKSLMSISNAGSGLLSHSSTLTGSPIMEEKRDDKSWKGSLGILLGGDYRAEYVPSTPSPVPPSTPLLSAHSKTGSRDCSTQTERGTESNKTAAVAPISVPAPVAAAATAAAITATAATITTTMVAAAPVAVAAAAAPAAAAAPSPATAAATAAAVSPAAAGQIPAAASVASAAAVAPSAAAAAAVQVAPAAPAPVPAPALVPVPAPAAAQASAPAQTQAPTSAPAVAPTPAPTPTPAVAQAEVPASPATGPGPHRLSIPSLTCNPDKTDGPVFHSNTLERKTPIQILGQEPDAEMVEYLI

HUVEC = assay: Inhibition of cell proliferation of HUVEC at 12.5 to 200 uM after 72 hrs by MTS assay; assay type: functional, cell-based; settings: Homo sapiens
[2] = target: T1, Angiomotin (Homo sapiens); assay: Binding affinity to recombinant GST-tagged Amot (H343 to I675 residues) (unknown origin) expressed in Escherichia coli at 25 uM using Amot immobilized on gold electrode of QCM sensor chip by […] biosensor-based assay

Activity [1]: Active | Activity [2]: Active
SMILES: CC[C@H]1OC(=O)[C@H](C)[C@@H](O[C@H]2C[C@@](C)(OC)[C@@H](O)[C@H](C)O2)[C@H](C)[C@@H](O[C@@H]2O[C@H](C)C[C@H](N(C)C)[C@H]2O)[C@](C)(O)C[C@@H](C)/C(=N\OCOCCOC)[C@H](C)[C@@H](O)[C@]1(C)O [ROXITHROMYCIN]
pIC50 (HUVEC): 4.00
